Measurements: ChEMBL document CHEMBL1128853, “Zn(II)-chelating inhibitors of carboxypeptidase A” (Bioorg Med Chem Lett, 1995)

Experiment: Binding affinity against Carboxypeptidase A

| SMILES | Ki |
| --- | --- |
| O=C(O)C(Cc1ccccc1)NC/C(=N\O)c1ccccn1 (stereo unspecified) | 580 µM |
| O=C(O)c1cccc(C(=O)NC(Cc2ccccc2)C(=O)O)n1 (stereo unspecified) | 790 µM |
| O=C(O)C(Cc1ccccc1)SCCSc1ccccc1 (stereo unspecified) | 670 µM |
| O=C(NC(Cc1ccccc1)C(=O)O)c1cnccn1 (stereo unspecified) | 180 µM |
| O=C(CC(Cc1ccccc1)C(=O)O)c1ccccc1S (stereo unspecified) | 4.4 µM |
| O=C(NC(Cc1ccccc1)C(=O)O)c1ccccn1 (stereo unspecified) | 370 µM |
| O=C(O)C(CSCCSCc1ccccc1)Cc1ccccc1 (stereo unspecified) | 660 µM |
| O=C(CC/C(=N\O)c1ccccn1)NC(Cc1ccccc1)C(=O)O (stereo unspecified) | > 300 µM |
| O=C(Nc1ccccc1)C(CSCCS)Cc1ccccc1 (stereo unspecified) | 34 µM |
| O=C(O)C(Cc1ccccc1)(Cc1ccccc1)SCCSc1ccccc1 | 450 µM |
| O=C(O)C(C/C(=N\O)c1ccccn1)Cc1ccccc1 (stereo unspecified) | > 300 µM |

Next, values leading:

| Ki | SMILES |
| --- | --- |
| 4.2 µM | O=C(O)C(CSCCS)Cc1ccccc1 (stereo unspecified) |
| 29 µM | NC(=O)C(CSCCS)Cc1ccccc1 (stereo unspecified) |
| 19 µM | O=C(O)CC(CSCCS)Cc1ccccc1 (stereo unspecified) |
| 620 µM | CCCCCC(Cc1ccccc1)C(=O)O (stereo unspecified) |
| 45 µM | O=C(O)C(CCCCS)Cc1ccccc1 (stereo unspecified) |
| 82 µM | O=C(CC(Cc1ccccc1)C(=O)O)c1ccccn1 (stereo unspecified) |
| 92 µM | NC(=O)C(CCSCCS)Cc1ccccc1 (stereo unspecified) |
| 21 µM | O=C(O)C(Cc1ccccc1)SCCS (stereo unspecified) |
| 340 µM | CCCSCC(Cc1ccccc1)C(=O)O (stereo unspecified) |
| 5.8 µM | O=C(O)C(CCc1ccccc1S)Cc1ccccc1 (stereo unspecified) |
